Experimental findings from ChEMBL document CHEMBL5291721, “A preclinical secondary pharmacology resource illuminates target-adverse drug reaction associations of marketed drugs” (Nat Commun, 2023) are described below.

One experiment concerns the target Acetylcholinesterase (Homo sapiens, UniProt P22303). The format is functional.
For experiment [1], the target named is T1, Muscarinic acetylcholine receptor M1 (Homo sapiens, UniProt P11229).
T1 sequence (P11229 whole entry): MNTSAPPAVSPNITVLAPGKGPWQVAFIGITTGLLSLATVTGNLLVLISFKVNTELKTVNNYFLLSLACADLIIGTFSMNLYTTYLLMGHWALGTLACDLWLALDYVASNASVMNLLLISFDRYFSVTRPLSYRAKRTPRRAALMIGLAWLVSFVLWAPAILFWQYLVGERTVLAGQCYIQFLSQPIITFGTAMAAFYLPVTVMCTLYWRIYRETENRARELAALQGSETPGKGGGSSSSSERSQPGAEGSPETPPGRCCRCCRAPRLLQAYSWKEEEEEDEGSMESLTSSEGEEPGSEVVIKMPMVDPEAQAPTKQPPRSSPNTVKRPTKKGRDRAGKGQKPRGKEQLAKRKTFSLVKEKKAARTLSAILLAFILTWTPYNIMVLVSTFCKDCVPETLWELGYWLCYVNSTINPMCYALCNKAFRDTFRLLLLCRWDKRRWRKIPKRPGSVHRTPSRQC
The class given is functional, cell-based.

Another experiment has as its target D(3) dopamine receptor (Homo sapiens, UniProt P35462).
A further experiment addresses Prothrombin (Homo sapiens, UniProt P00734). The class given is functional.
The next experiment has as its target Histamine H3 receptor (Homo sapiens, UniProt Q9Y5N1).
Experiment [2] has as its target T2, 5-hydroxytryptamine receptor 1A (Homo sapiens, UniProt P08908).
T2 sequence (P08908 whole entry): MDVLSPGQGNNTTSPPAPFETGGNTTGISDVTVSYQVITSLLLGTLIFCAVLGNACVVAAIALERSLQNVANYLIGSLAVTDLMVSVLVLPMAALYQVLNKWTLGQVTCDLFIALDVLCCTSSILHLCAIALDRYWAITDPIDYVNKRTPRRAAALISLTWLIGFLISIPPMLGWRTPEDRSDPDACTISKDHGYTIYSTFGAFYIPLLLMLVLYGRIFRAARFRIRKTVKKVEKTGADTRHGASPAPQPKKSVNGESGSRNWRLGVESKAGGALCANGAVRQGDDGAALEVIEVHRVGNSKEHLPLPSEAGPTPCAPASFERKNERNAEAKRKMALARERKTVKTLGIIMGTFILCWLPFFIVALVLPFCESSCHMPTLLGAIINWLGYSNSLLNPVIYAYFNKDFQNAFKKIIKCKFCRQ

Experiment [3] deals with Voltage-gated inwardly rectifying potassium channel KCNH2 (Homo sapiens, UniProt Q12809). The class given is functional.
The target in experiment [4] is cGMP-inhibited 3',5'-cyclic phosphodiesterase 3A (Homo sapiens, UniProt Q14432). The format is functional.
The next experiment addresses T3, Progesterone receptor (Homo sapiens, UniProt P06401).
T3 sequence (P06401 whole entry): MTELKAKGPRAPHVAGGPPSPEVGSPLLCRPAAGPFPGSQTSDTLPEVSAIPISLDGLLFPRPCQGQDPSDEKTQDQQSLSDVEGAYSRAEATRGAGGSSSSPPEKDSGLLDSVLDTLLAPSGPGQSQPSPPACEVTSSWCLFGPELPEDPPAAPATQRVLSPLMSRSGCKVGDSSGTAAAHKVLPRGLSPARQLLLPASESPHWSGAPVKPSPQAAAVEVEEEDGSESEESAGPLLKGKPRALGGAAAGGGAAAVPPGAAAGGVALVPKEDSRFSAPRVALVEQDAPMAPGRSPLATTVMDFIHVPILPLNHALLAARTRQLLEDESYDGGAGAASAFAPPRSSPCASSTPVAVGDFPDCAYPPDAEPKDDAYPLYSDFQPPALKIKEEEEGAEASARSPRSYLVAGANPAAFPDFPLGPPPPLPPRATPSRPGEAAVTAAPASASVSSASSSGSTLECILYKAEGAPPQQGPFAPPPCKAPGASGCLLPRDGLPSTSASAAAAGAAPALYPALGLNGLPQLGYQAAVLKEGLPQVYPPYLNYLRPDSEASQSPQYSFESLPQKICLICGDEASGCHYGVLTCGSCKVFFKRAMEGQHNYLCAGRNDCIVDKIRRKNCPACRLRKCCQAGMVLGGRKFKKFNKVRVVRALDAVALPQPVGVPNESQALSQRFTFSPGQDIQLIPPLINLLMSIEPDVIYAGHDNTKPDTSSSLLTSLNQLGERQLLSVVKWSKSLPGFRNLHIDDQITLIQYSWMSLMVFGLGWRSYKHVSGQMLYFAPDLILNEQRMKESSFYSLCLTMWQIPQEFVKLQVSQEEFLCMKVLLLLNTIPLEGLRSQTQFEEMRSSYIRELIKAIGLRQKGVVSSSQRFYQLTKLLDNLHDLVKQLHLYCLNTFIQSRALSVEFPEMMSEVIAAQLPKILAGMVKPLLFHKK

Experiment [5] addresses Prostaglandin G/H synthase 1 (Homo sapiens, UniProt P23219). The format is functional.
In experiment [6] the target is Sodium-dependent dopamine transporter (Homo sapiens, UniProt Q01959).
For another experiment, the target named is T4, Thromboxane A2 receptor (Homo sapiens, UniProt P21731).
T4 sequence (P21731 whole entry): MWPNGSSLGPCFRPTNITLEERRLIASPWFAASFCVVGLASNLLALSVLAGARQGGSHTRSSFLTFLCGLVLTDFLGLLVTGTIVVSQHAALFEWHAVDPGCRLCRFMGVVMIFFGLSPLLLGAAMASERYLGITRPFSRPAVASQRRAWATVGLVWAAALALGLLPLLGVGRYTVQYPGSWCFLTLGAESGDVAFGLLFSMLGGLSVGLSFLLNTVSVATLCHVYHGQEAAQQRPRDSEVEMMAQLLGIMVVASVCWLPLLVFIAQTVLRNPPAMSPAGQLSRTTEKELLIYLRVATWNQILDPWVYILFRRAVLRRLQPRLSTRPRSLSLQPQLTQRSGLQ
The class given is functional, cell-based.
Further: assay procedure not described here.

Histamine H3 receptor, sequence (Q9Y5N1 whole entry): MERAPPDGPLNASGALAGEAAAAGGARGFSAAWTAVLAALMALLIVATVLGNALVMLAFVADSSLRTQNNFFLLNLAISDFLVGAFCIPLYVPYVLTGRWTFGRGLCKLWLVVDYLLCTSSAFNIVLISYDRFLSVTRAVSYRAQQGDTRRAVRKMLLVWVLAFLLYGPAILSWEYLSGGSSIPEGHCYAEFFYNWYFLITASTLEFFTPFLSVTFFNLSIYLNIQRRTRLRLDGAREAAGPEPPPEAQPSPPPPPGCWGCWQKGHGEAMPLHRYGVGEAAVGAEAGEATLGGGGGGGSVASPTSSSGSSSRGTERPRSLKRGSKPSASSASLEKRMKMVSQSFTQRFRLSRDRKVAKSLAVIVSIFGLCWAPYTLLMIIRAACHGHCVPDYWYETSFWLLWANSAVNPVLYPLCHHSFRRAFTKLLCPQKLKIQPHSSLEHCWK
Voltage-gated inwardly rectifying potassium channel KCNH2, sequence (Q12809 whole entry): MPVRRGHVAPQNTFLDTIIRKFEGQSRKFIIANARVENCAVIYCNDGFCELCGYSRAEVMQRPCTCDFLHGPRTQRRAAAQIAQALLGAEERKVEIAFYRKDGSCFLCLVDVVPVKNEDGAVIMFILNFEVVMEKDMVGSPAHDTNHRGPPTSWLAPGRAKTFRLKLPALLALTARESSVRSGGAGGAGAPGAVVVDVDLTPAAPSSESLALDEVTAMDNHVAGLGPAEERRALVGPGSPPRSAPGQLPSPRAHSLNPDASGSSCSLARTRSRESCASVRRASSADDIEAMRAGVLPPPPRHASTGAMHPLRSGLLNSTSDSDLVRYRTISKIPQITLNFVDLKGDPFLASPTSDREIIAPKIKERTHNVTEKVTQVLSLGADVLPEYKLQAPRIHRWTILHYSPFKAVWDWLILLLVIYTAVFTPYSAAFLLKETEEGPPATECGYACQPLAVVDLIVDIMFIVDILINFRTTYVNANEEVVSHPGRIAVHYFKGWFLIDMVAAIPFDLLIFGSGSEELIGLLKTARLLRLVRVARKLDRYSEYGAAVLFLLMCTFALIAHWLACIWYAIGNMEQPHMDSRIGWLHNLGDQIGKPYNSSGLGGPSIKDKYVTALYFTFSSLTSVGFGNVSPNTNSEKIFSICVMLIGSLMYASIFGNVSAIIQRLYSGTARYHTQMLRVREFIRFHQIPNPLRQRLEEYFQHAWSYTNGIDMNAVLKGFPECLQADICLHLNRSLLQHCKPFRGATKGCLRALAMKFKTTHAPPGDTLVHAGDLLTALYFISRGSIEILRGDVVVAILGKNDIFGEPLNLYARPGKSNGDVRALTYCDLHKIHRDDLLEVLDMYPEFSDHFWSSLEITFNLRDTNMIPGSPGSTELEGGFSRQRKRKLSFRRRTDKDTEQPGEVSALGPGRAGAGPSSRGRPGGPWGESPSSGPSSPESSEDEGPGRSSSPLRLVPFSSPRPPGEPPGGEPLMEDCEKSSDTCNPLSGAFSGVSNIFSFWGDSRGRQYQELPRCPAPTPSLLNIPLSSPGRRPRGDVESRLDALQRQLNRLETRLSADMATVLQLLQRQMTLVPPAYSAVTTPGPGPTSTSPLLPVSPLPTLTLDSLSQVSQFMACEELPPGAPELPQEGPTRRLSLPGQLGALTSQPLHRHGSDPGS
Acetylcholinesterase, sequence (P22303 whole entry): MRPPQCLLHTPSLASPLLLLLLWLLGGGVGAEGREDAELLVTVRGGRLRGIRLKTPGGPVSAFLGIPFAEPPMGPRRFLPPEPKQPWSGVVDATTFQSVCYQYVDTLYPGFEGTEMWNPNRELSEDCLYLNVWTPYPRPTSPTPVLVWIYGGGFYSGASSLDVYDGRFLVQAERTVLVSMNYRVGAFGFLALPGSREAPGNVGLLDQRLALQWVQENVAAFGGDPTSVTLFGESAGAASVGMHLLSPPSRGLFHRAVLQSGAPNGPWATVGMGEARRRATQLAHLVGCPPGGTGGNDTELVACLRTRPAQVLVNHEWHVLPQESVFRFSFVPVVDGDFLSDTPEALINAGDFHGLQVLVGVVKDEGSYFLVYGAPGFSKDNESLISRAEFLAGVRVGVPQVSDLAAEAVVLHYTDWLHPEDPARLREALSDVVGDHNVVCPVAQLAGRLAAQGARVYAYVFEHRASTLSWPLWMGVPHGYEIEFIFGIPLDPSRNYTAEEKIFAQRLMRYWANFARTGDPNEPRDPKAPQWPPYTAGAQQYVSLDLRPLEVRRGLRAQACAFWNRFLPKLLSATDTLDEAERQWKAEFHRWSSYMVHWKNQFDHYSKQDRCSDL
cGMP-inhibited 3',5'-cyclic phosphodiesterase 3A, sequence (Q14432 whole entry): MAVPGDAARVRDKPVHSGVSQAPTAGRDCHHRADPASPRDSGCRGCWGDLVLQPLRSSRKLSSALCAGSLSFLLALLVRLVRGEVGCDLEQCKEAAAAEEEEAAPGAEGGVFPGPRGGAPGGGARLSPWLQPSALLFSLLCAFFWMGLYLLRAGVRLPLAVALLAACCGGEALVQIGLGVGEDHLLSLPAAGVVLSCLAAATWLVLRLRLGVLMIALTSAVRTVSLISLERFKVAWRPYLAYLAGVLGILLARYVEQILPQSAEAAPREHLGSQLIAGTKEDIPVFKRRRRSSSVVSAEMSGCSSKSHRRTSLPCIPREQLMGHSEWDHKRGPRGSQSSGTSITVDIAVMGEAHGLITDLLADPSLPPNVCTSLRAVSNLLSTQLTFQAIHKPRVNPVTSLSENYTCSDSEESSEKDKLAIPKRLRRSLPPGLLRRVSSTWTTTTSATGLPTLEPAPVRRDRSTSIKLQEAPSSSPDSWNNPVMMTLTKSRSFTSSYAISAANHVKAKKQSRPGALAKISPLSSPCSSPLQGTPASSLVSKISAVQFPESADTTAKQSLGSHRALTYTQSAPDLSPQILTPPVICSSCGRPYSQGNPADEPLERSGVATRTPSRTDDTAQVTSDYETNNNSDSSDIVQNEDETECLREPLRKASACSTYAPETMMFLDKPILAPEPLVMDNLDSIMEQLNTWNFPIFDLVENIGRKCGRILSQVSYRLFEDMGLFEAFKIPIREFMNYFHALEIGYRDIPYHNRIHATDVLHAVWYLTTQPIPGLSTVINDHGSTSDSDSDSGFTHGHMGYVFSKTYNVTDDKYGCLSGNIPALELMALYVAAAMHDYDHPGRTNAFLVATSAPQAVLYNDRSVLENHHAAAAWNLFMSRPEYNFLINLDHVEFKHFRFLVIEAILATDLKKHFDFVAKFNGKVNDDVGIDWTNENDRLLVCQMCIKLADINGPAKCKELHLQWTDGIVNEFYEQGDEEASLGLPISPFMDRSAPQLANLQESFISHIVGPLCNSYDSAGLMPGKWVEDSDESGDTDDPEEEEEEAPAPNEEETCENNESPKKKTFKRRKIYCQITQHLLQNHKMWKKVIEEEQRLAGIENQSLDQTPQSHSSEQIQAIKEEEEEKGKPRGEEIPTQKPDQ
Sodium-dependent dopamine transporter, sequence (Q01959 whole entry): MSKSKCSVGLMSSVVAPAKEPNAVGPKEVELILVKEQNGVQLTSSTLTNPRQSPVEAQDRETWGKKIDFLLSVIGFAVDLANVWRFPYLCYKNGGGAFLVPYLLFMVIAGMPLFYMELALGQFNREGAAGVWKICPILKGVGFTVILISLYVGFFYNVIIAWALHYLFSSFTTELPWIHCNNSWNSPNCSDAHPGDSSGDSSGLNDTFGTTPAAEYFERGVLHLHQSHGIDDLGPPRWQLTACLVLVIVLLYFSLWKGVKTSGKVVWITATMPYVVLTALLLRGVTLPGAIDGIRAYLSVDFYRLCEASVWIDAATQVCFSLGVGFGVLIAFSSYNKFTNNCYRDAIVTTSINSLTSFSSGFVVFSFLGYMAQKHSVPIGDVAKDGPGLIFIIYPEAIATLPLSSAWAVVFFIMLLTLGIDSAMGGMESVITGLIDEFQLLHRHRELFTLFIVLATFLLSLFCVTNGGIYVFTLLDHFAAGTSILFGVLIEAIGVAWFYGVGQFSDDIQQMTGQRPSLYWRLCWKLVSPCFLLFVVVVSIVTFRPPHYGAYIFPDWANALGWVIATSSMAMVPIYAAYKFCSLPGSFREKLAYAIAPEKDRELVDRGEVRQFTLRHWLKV
D(3) dopamine receptor, sequence (P35462 whole entry): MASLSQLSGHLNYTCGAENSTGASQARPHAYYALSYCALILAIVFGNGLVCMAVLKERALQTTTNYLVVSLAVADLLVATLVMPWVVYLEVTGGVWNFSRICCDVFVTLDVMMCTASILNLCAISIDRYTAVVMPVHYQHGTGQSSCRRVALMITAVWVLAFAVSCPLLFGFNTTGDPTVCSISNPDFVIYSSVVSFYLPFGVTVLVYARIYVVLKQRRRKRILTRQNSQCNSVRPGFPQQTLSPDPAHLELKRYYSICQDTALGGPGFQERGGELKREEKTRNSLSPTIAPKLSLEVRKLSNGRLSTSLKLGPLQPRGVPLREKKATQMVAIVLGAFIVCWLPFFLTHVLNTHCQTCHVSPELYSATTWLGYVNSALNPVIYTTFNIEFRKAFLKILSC
Prostaglandin G/H synthase 1, sequence (P23219 whole entry): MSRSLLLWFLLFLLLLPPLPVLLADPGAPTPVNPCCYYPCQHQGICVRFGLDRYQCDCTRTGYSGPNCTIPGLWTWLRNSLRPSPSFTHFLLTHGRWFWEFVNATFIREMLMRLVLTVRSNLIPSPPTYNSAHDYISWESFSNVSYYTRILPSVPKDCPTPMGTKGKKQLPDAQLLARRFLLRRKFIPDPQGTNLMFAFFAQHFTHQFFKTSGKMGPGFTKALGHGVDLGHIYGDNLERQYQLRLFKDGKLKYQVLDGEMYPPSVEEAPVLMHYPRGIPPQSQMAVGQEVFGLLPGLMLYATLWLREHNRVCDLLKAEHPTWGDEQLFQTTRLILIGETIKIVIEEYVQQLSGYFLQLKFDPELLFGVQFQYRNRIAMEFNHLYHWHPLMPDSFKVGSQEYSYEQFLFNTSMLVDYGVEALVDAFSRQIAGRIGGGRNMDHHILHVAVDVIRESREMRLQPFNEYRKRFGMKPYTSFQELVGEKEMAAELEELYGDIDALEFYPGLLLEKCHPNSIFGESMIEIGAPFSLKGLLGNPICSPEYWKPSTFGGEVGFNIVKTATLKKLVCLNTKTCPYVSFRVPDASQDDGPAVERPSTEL

By AC50 is commonly meant the midpoint of the concentration-response curve, whichever way the signal moves. Low readings indicate activity at low concentration, high ones activity only at high concentration. Consider `COc1c2ccoc2cc2oc(=O)ccc12` [BERGAPTEN], for which the concentration at half-maximal activity (AC50) (on Acetylcholinesterase; in [1]; on D(3) dopamine receptor; on Prothrombin; at Histamine H3 receptor; in experiment [2]) was greater than 30 µM each time. In addition, the AC50 in [3] is greater than 30 µM; in experiment [4], greater than 30 µM; on Progesterone receptor it was 12.4 µM; in experiment [5] it was greater than 30 µM; in experiment [6] it was greater than 30 µM; at Thromboxane A2 receptor it was greater than 30 µM.

For `C[N+](C)(C)C[C@H](O)CC(=O)[O-]` [LEVOCARNITINE], the AC50 (on Acetylcholinesterase; on D(3) dopamine receptor; at Prothrombin; on Histamine H3 receptor; in experiment [2]; in experiment [3]) was greater than 30 µM in each case. In addition, the AC50 (in experiment [4]; at Progesterone receptor; in [5]; in [6]; at Thromboxane A2 receptor) was greater than 30 µM throughout.

Regarding `CCOC(=O)C1=C[C@@H](OC(CC)CC)[C@H](NC(C)=O)[C@@H](N)C1` [OSELTAMIVIR], the AC50 (on Acetylcholinesterase; in experiment [1]; at D(3) dopamine receptor; at Prothrombin; at Histamine H3 receptor; in experiment [2]) was greater than 30 µM in each case. Besides, the AC50 (in experiment [3]; in [4]; at Progesterone receptor; in [5]; in [6]; on Thromboxane A2 receptor) was greater than 30 µM each time.

Regarding `Cc1onc(-c2ccccc2)c1C(=O)N[C@@H]1C(=O)N2[C@@H]1SC(C)(C)[C@@H]2C(=O)O` [OXACILLIN], the concentration at half-maximal activity (AC50) (at Acetylcholinesterase; in experiment [1]; at D(3) dopamine receptor; on Prothrombin; at Histamine H3 receptor; in experiment [2]) was greater than 30 µM throughout. For the same compound, the AC50 (in experiment [3]; in [4]; at Progesterone receptor; in [5]; in [6]; at Thromboxane A2 receptor) was greater than 30 µM each time.

Turning to `[H]/N=C(\N/C(=N/[H])Nc1ccc(Cl)cc1)NC(C)C` [PROGUANIL], the half-maximal activity concentration (AC50) (on Acetylcholinesterase; in experiment [1]; on D(3) dopamine receptor; on Prothrombin; on Histamine H3 receptor; in experiment [2]) was greater than 30 µM in each case. Moreover, the AC50 is 19 µM in experiment [3]; greater than 30 µM in experiment [4]; greater than 30 µM on Progesterone receptor; greater than 30 µM in experiment [5]; 12.5 µM in experiment [6]; greater than 30 µM on Thromboxane A2 receptor.

As for `O=C(O)COc1ccc(C(=O)c2cccs2)c(Cl)c1Cl`, the AC50 (at Acetylcholinesterase; at D(3) dopamine receptor; at Prothrombin; at Histamine H3 receptor; in experiment [2]; in experiment [3]) was greater than 30 µM throughout. In addition, the AC50 (in experiment [4]; on Progesterone receptor; in experiment [5]; in experiment [6]; on Thromboxane A2 receptor) was greater than 30 µM each time.

`C[C@@H]1C[C@H]2[C@@H]3CCC4=CC(=O)C=C[C@]4(C)[C@@]3(Cl)[C@@H](O)C[C@]2(C)[C@@]1(OC(=O)c1ccco1)C(=O)CCl` [MOMETASONE FUROATE]: the concentration at half-maximal activity (AC50) (at Acetylcholinesterase; in experiment [1]; at D(3) dopamine receptor; on Prothrombin; on Histamine H3 receptor; in experiment [2]) was greater than 30 µM in each case. In addition, the AC50 (in experiment [3]; in experiment [4]; in [5]; in experiment [6]; at Thromboxane A2 receptor) was greater than 30 µM throughout.

Turning to `C[C@]1(Cn2ccnn2)[C@H](C(=O)O)N2C(=O)C[C@H]2S1(=O)=O` [TAZOBACTAM], the concentration at half-maximal activity (AC50) (on Acetylcholinesterase; on D(3) dopamine receptor; on Prothrombin; at Histamine H3 receptor; in experiment [2]; in experiment [3]) was greater than 30 µM throughout. In addition, the half-maximal activity concentration (AC50) (in experiment [4]; at Progesterone receptor; in experiment [5]; in experiment [6]; on Thromboxane A2 receptor) was greater than 30 µM throughout.

In the case of `CN1CCCCC1CCN1c2ccccc2Sc2ccc([S+](C)[O-])cc21` (stereo not given) [MESORIDAZINE], the half-maximal activity concentration (AC50) at Acetylcholinesterase is greater than 30 µM; in [1], greater than 30 µM; at D(3) dopamine receptor it was 0.0197 µM; at Prothrombin, greater than 30 µM; at Histamine H3 receptor it was 21.9 µM; in experiment [2], 0.214 µM. Moreover, the AC50 in [4] is greater than 30 µM; on Progesterone receptor it was greater than 30 µM; in experiment [5], greater than 30 µM; in experiment [6], 19.8 µM; on Thromboxane A2 receptor it was greater than 30 µM.

`N[C@@H](CS)C(=O)O` [CYSTEINE]: the concentration at half-maximal activity (AC50) (at Acetylcholinesterase; in experiment [1]; on D(3) dopamine receptor; on Prothrombin; at Histamine H3 receptor; in experiment [2]) was greater than 30 µM each time. Further, the half-maximal activity concentration (AC50) in [4] was greater than 30 µM; on Progesterone receptor, greater than 30 µM; in experiment [5], 4.66 µM; in [6], greater than 30 µM; on Thromboxane A2 receptor, greater than 30 µM.

As for `CC(CCc1ccccc1)NCC(O)c1ccc(O)c(C(N)=O)c1` (stereo not given) [LABETALOL], the AC50 at Acetylcholinesterase is greater than 30 µM; on D(3) dopamine receptor, 5.85 µM; at Prothrombin, greater than 30 µM; on Histamine H3 receptor, greater than 30 µM; in experiment [2], 0.104 µM; in experiment [3] it was greater than 30 µM. In addition, the AC50 in experiment [4] is greater than 30 µM; at Progesterone receptor, greater than 30 µM; in experiment [5], greater than 30 µM; in [6], 2.22 µM; on Thromboxane A2 receptor, greater than 30 µM.
